Laboratory results published in the supplement of paper PMC10331698.
± gives the standard deviation of the averaged measurements.

Key:
Test in all cases: level (log10 ratio to DMSO vehicle control); higher = higher biomarker level / cell amount than vehicle control
Conditions in all cases: in DMSO
Octafluoroadipamide = compound: NC(=O)C(F)(F)C(F)(F)C(F)(F)C(F)(F)C(N)=O [Octafluoroadipamide]
Procedure: (§1)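 BioMAP Diversity Plus panel of 12 human primary cell co-culture systems (3C, 4H, LPS, SAg, BT, BF4T, BE3C, CASM3C, HDF3CGF, KF3CT, MyoF, Mphg). Compounds were added 1 h before stimulation and left for 24 h (MyoF 48 h; BT 72 h for soluble read-outs or 6 d for IgG). Biomarkers were read by ELISA, cytotoxicity by SRB, PBMC viability and proliferation by Alamar Blue. Each well value was divided by the mean of 8 DMSO control wells on the same plate and log10 transformed; duplicate blinded samples were tested at 4 concentrations.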

[1] = compound: O=S(=O)(O)CCC(F)(F)C(F)(F)C(F)(F)C(F)(F)C(F)(F)C(F)(F)F [6:2 Fluorotelomer sulfonic acid]
Procedure: as §1

[2] = compound: FC(F)(F)C(F)(F)C(F)(F)C(F)(F)C(F)(F)C(F)(F)CC1CO1 [3-(Perfluorohexyl)-1,2-epoxypropane]
Procedure: as §1

[3] = compound: FC(F)(F)C(F)(F)CNCC(F)(F)C(F)(F)F [Bis(1H,1H-perfluoropropyl)amine]
Procedure: as §1

[4] = compound: NC(=O)C(F)(F)C(F)(F)C(F)(F)C(F)F
Procedure: as §1

Row | Test System | level (log10) (Octafluoroadipamide; 6700 nM) | level (log10) (Octafluoroadipamide; 20000 nM) | level (log10) (Octafluoroadipamide; 60000 nM) | level (log10) ([1]; 6700 nM) | level (log10) ([1]; 20000 nM) | level (log10) ([1]; 60000 nM) | level (log10) ([2]; 6700 nM) | level (log10) ([2]; 20000 nM) | level (log10) ([2]; 60000 nM) | level (log10) ([3]; 6700 nM) | level (log10) ([3]; 20000 nM) | level (log10) ([3]; 60000 nM) | level (log10) ([4]; 6700 nM) | level (log10) ([4]; 20000 nM) | level (log10) ([4]; 60000 nM)
1 | MyoF:SRB | -0.004 ± 0.0028 | -0.01 ± 0.0042 | -0.0055 ± 0.0078 | -0.002 ± 0.0014 | 0.0005 ± 0.0092 | -0.0015 ± 0.0021 | -0.007 ± 0.0057 | -0.005 ± 0.0057 | 0.0015 ± 0.011 | 0 ± 0.0057 | -0.011 ± 0.0057 | -0.011 ± 0.0042 | -0.006 ± 0.0042 | -0.0175 ± 0.012 | -0.003
2 | MyoF:TIMP-1 | -0.0325 ± 0.023 | 0.004 ± 0.033 | 0.021 ± 0.021 | -0.032 ± 0.052 | 0.031 ± 0.042 | 0.097 ± 0.011 | -0.0295 ± 0.046 | -0.028 ± 0.027 | 0.033 ± 0.03 | -0.0225 ± 0.039 | 0.0005 ± 0.067 | -0.0035 ± 0.0064 | -0.031 ± 0.011 | -0.024 ± 0.023 | -0.0505 ± 0.00071
3 | MyoF:alpha-SM Actin | 0.022 ± 0.061 | 0.0315 ± 0.056 | 0.0385 ± 0.032 | 0.016 ± 0.018 | 0.001 ± 0.021 | -0.02 ± 0.082 | 0.0205 ± 0.015 | 0.0035 ± 0.0064 | 0.0185 ± 0.0035 | 0.0315 ± 0.037 | 0.0225 ± 0.046 | 0.0245 ± 0.043 | -0.006 ± 0.0057 | 0.0025 ± 0.023 | -0.002 ± 0.033
4 | MyoF:bFGF | -0.0115 ± 0.015 | -0.014 ± 0.011 | 0.0135 ± 0.0078 | -0.0065 ± 0.0078 | 0.019 ± 0.013 | 0.0235 ± 0.044 | 0.02 ± 0.02 | 0.02 ± 0.018 | 0.014 ± 0.0057 | -0.0065 ± 0.013 | -0.0045 ± 0.005 | 0.013 ± 0.025 | -0.0125 ± 0.005 | -0.008 ± 0.017 | -0.0155 ± 0.005
5 | lMphg:CCL3/MIP-1alpha | 0.0425 ± 0.032 | 0.019 ± 0.047 | 0.0295 ± 0.013 | 0.014 ± 0.021 | 0.072 ± 0.02 | 0.0565 ± 0.039 | -0.0345 ± 0.035 | -0.029 ± 0.034 | -0.009 ± 0.021 | 0.039 ± 0.016 | 0.002 ± 0.014 | -0.009 ± 0.0085 | -0.039 ± 0.0099 | -0.0295 ± 0.018 | -0.006 ± 0.0028
6 | lMphg:CD62E/E-Selectin | 0.0095 ± 0.00071 | 0.002 ± 0.0042 | 0.007 ± 0.016 | -0.0225 ± 0.018 | -0.039 ± 0.0071 | 0 ± 0.023 | -0.0155 ± 0.00071 | 0.0055 ± 0.016 | -0.0045 ± 0.061 | 0.0005 ± 0.0035 | -0.0185 ± 0.0078 | 0.002 ± 0.02 | -0.011 ± 0.038 | -0.021 ± 0.076 | -0.037 ± 0.078
7 | lMphg:CD69 | -0.0425 ± 0.052 | -0.027 ± 0.042 | 0.0275 ± 0.063 | -0.034 ± 0.04 | -0.065 ± 0.054 | -0.073 ± 0.025 | 0.004 ± 0.025 | -0.007 ± 0.021 | 0.0235 ± 0.049 | -0.017 ± 0.028 | -0.012 ± 0.03 | 0.0045 ± 0.14 | 0.0265 ± 0.018 | -0.015 ± 0.0071 | -0.0115 ± 0.0078
8 | lMphg:CD106/VCAM-1 | 0.014 ± 0.013 | 0.019 ± 0.0085 | 0.0125 ± 0.0021 | -0.007 ± 0.011 | -0.0125 ± 0.0092 | -0.022 ± 0.0071 | 0.0025 ± 0.012 | 0.005 ± 0.013 | -0.0015 ± 0.018 | 0.0135 ± 0.011 | 0.0055 ± 0.0092 | 0.0075 ± 0.0035 | 0 ± 0.013 | 0.006 ± 0.0014 | -0.003 ± 0.017
9 | lMphg:CXCL8/IL-8 | 0.003 ± 0.054 | -0.0095 ± 0.069 | 0.0455 ± 0.026 | -0.0115 ± 0.005 | 0.022 ± 0.014 | 0.0725 ± 0.0092 | -0.0215 ± 0.0035 | -0.0125 ± 0.019 | 0.04 ± 0.05 | 0 ± 0.011 | 0.0075 ± 0.069 | -0.0035 ± 0.053 | -0.0235 ± 0.0078 | -0.0225 ± 0.028 | 0.0185 ± 0.047
10 | lMphg:M-CSF | -0.017 ± 0.0028 | -0.0065 ± 0.0035 | 0.0045 ± 0.00071 | 0.0045 ± 0.0078 | -0.023 ± 0.028 | -0.0145 ± 0.0064 | -0.01 ± 0.0071 | -0.0305 ± 0.0078 | -0.0145 ± 0.021 | -0.007 ± 0.011 | -0.0145 ± 0.022 | 0.0165 ± 0.021 | -0.0135 ± 0.0092 | -0.018 ± 0.025 | -0.0175 ± 0.015
11 | lMphg:SRB | -0.004 ± 0.0014 | 0 ± 0.0042 | 0.008 ± 0.017 | -0.001 ± 0.011 | 0.0125 ± 0.019 | -0.002 ± 0.018 | -0.012 ± 0.0042 | -0.016 ± 0.0071 | 0.0115 ± 0.005 | -0.0085 ± 0.00071 | -0.007 ± 0.0028 | 0.009 ± 0.018 | -0.008 ± 0.0057 | -0.007 ± 0.0042 | -0.0005 ± 0.018
12 | lMphg:sIL-10 | -0.0295 ± 0.021 | -0.012 ± 0.11 | -0.1 ± 0.017 | -0.025 ± 0.037 | -0.015 ± 0.02 | -0.049 ± 0.0057 | -0.0195 ± 0.029 | -0.057 ± 0.0085 | -0.059 ± 0.051 | -0.0755 ± 0.028 | 0.037 ± 0.024 | -0.059 ± 0.034 | -0.013 ± 0.023 | -0.0715 ± 0.005 | -0.021 ± 0.047
